In PMC12866179, “Oxidized MIF is an Alzheimer’s disease drug target relaying external risk factors to tau pathology” (Cell Reports Medicine, 2025):

Tests used:
MIF-wt and MIF-C80W = experiment: Stabilization of transiently expressed MIF in HEK-MIF-knockdown cells; type: cell-based, human; conditions: HEK-MIF-KO cells transfected with rescue constructs
Description: Transient transfection of HEK-MIF-knockdown cells with MIF-rescue constructs were carried out with lipofectamine 3000 according to the manufacturer’s recommendations. Briefly, 5x10^5 HEK-MIF-ko cells were seeded into 12-well plates. At the next day the cells were transfected with 2.5 μg of vector DNA. Cells were washed twice with PBS and lysed in PBS/1% NP40 48h after transfection.

human brain organoids = experiment: TUNEL assay in human brain organoids; type: cell-based
Description: 60 days old human brain organoids with an estimated cell number of 2.5x10^6 were preincubated with DMSO or 250 nM of PAV-174 for 1h (final DMSO concentration was 0.5%). Then organoids were infected with HSV-1 at an MOI of 0.1 or 1.0. At the next day the medium was renewed and new compound was added. After another 24h, the organoids were washed two times with PBS and then either fixed with 4% PFA at 4°C overnight (for immunocytochemistry and TUNEL assay) or lysed with cold RIPA buffer (50 mM Tris-HCL, pH 7.4, 1% NP-40, 0.5% Na-deoxycholate, 0.1% SDS, 150 mM NaCl, 5 mM EDTA, 50 mM NaF) plus 1X Protease inhibitor cocktail (Roche) and phosphatase inhibitor cocktail (Sigma) followed by 4x sonication for 30s using a Misonix ultrasonic water bath at 100% amplitude. Protein concentration was determined with the DC Protein Assay (Bio-Rad). For immunocytochemistry and TUNEL assay fixed organoids were embedded in paraffin and section of 5 μm were prepared.
Apoptotic cells in sections of brain organoids were detected by TdT-mediated dUTP-biotin nick end labeling (TUNEL) using the DeadEnd Fluorometric TUNEL System (Promega) according to the manufacturers recommendations. At least three 5-μm sections of the brain organoids were analyzed by taking at least 10 images of each organoid. Dead cells were counted using Fiji/ImageJ (NIH).

[1] = biological target: T1, D-dopachrome tautomerase (D-DT) (Homo sapiens, UniProt P30046); experiment: Drug resin affinity chromatography (DRAC), D-DT; type: binding; conditions: SH-SY5Y-tau-P301S lysates
T1 construct: Lysates derived from SH-SY5Y-tau-P301S control; endogenous in cells; host or cells: SH-SY5Y-tau-P301S control and MIF-ko cell lysates
Description: For drug resin affinity chromatography (DRAC), supernatant of cell lysates or brain extracts were supplemented with 1 mM of ribonucleoside triphosphates (ATP, GTP, CTP, UTP; NEB), 10 mM creatine phosphate (Sigma) and 10 μL/mL of a 5 mg/mL stock solution of creatine kinase (Sigma). The samples were then loaded onto 20 μL of compound-coupled resin that were equilibrated with PBB-buffer (plus supplements). After one hour of incubation at 26°C, the beads were washed with PBB (100x bed volume). Bound proteins were then eluted either with 200 μM PAV-645 (pig brain) or 100 μM free compound (human brain samples; cell lysates) in the same buffer used as competitor solution or for stripping 1% SDS or 8M urea (cell lysates) for 1h. All elutions were kept frozen until further analysis.
Figure S3. PAV-17 4 reduces ta u phosphorylation al s o in the abs enc e of HSV-1-infection in a MIF and dose dependent manner. Rel a ted to Figure 3
(A) SH-SY5Y-tau-P301S cel ls could efficiently been infected with HSV-1. The cel ls we re infected with increasing MOIs (0 .0 3 to 3. 0 ) of HSV-1 an d then lysed af t er 6h , 9h , 16 h or 24 h. […]
(E) Expression of MIF wa s no t mo du late d up on infection with HSV-1. […] The di ag ram di splays the quantification of MIF normalized to GAPDH derived from three in de pe nd en t exper iments (n =3). […]

SMILES | stabilization of MIF-wt and MIF-C80W (MIF-wt and MIF-C80W) | induction of apoptosis in human brain organoids (human brain organoids) | cell toxicity mediated by HSV-1 infection (TUNEL-positive cells) (human brain organoids; HSV-1-infected brain organoids) | binding of / interaction with D-DT [1]
CCc1cc(N2CCCC2)cc2[s+]c3cc(N4CCCC4)cc(C)c3nc12.[I-] [PAV-174, 3,7-Di(pyrrolidine-1-yl) 1-ethyl-9-methyl-phenothiazin-5-ium iodide] | significant stabilization | no induction of apoptosis | lowered cell toxicity mediated by HSV-1 infection | –
[I-].c1cc2nc3ccc(N4CCCC4)cc3[s+]c2cc1N1CCCC1 [PAV-617, 3,7-Di(pyrrolidine-1-yl)phenothiazine-5-ium iodide] | – | – | – | no bi nd ing of D-DT
